Source: patent US9095134B2, “Antimicrobial compositions containing cationic active ingredients and quaternary sugar derived surfactants” (priority 2010, dated 2015)

Columns and labels:
[1] = test system: S. aureus; experiment: Time kill method (ASTM E 2315), log reduction of S. aureus; type: cell-based, S. aureus (ATCC 6538); conditions: 0.5% ADBAC Quat
Experimental: (§1) • (a) Determination of Time Kill Activity: The activity of antimicrobial compositions was measured by the time kill method [ASTM E 2315 Standard Guide for Assessment of Antimicrobial Activity Using a Time Kill Procedure], whereby the survival of challenged organisms exposed to an antimicrobial test composition is […] as a function of time. In this test, a diluted aliquot of the composition is brought into contact with a known population of test bacteria for a specified time period at a specified temperature. The test composition is neutralized at the end of the time period, which arrests the antimicrobial activity of the composition. The percent or, alternatively, log reduction from the original bacteria population is calculated. In general, the time kill method is known to those skilled in the art. In addition, comparative data on the foam profile of representative systems is shown. • (b) The composition can be tested at any concentration from 0-100%. The choice of which concentration to use is at the discretion of the investigator, and suitable concentrations are readily determined by those skilled in the art. All testing if performed in triplicate, the results are combined, and the average log reduction is reported. • (c) The choice of contact time period also is at the discretion of the investigator. Any contact time period can be chosen. Typical contact times range from 15 second to 5 minutes, with 30 seconds and 1 minute being typical contact times. The contact temperature also can be any temperature, typically room temperature, or about 25 degrees Celsius. • (d) The microbial suspension, or test inoculum, is prepared by growing a microbial culture on any appropriate solid media (e.g., agar). The microbial population then is washed from the agar with sterile physiological saline and the population of the microbial suspension is adjusted to about 10^8 colony forming units per ml (cfu/ml). • (e) The table below lists the test microbial cultures used in the following tests and includes the name of the bacteria, the ATCC (American Type Culture Collection) identification number, and the abbreviation for the name of the organism used hereafter.
(§2) S. aureus is a Gram positive bacteria, whereas, E. coli is a Gram negative bacteria.
(§3) The log reduction is calculated using the formula: Log reduction=log10(numbers control)−log10(test sample survivors). Foam Height Determination

[2] = test system: E. coli; experiment: Time kill method (ASTM E 2315), log reduction of E. coli; type: cell-based, Escherichia coli (ATCC 112229); conditions: 0.5% ADBAC Quat
Experimental: as §1, §2, §3

[3] = 1.95% w/w foam boosting agent, 1.25% Poly Trimoniumhydroxypropyl Cocoglucosides Chloride, 30 seconds exposure
[4] = 3.0% w/w foam boosting agent, 1.25% Poly Trimoniumhydroxypropyl Cocoglucosides Chloride, 30 seconds exposure
[5] = 4.2% w/w foam boosting agent, 1.25% Poly Trimoniumhydroxypropyl Cocoglucosides Chloride, 30 seconds exposure
[6] = quaternized sugar-derived surfactant 1.25% w/w, 1.95% alkyl dimethyl amine oxide, 30 second exposure

| Substance | S. aureus Log Reduction [1, 6] [log] | E. coli Log Reduction [2, 6] [log] | other results |
| --- | --- | --- | --- |
| Alkyl Dimethyl Amine Oxide | – | – | S. aureus Log Reduction [1, 3]: >5.5 log; S. aureus Log Reduction [1, 4]: >5.5 log; S. aureus Log Reduction [1, 5]: >5.5 log; E. coli Log Reduction [2, 3]: >5.5 log; E. coli Log Reduction [2, 4]: >5.5 log; E. coli Log Reduction [2, 5]: >5.5 log |
| Cocoglucosides Hydroxypropyl-trimonium Chloride [TM8610] | >5.0 | >5.0 | – |
| Lauridimonium-hydroxypropyl Cocoglucosides Chloride [L8610] | >5.0 | >5.0 | – |
| Lauridimonium-hydroxypropyl Laurylglucosides Chloride [L1210] | >5.0 | >5.0 | – |
| Laurylglucosides Hydroxypropyl-trimonium Chloride [TM1212] | >5.0 | >5.0 | – |
| Stearyldimonium-hydroxypropyl Laurylglucosides Chloride [S1218] | >5.0 | >5.0 | – |
